Active and inactive are the calls of the source.
Legend:
[1] = target: T1, DNA repair and recombination protein RAD54-like (Homo sapiens, UniProt Q92698); experiment: RAD54 Holliday junction migration blockers – biochemical, fluorescence, cherry-picked samples, dose series, confirmation (AID 651657); format: functional
T1 sequence (Q92698 whole entry): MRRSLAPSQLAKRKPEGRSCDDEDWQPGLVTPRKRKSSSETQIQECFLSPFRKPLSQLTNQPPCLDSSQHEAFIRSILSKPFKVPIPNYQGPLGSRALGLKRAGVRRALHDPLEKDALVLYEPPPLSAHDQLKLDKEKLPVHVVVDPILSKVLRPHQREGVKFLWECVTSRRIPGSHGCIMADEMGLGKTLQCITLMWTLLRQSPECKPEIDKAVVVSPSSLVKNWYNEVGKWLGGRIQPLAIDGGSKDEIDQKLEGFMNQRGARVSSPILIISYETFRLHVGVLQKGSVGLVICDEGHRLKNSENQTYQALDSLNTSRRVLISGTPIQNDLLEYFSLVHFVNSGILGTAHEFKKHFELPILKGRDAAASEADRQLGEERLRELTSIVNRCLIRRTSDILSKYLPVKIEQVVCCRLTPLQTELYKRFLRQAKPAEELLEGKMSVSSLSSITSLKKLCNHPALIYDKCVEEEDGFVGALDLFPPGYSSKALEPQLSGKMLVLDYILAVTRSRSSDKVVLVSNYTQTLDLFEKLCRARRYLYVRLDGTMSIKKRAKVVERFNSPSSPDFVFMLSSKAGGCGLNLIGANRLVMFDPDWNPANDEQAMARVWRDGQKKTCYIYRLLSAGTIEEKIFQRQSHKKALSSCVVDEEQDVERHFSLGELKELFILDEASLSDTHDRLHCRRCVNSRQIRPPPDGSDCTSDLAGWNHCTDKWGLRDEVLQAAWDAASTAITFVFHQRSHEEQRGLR

[2] = Luminescence Cell-Based Dose Response HTS to Identify Inhibitors of 5'UTR Stem-Loop Driven Prion Protein mRNA Translation in H4 Neuroglioblastoma Cells. [Related pubchem assays: 1827 (Project Summary), 1813 (Primary HTS)]; format: functional
[3] = luciferase reporter signal suppression in cells – H4 neuroglioma cells, luminescence, dose response (AID 1990); format: functional, cell-based
[4] = target: T2, Long-chain-fatty-acid--AMP ligase FadD28 (Mycobacterium tuberculosis, UniProt P9WQ59); experiment: Fluorescence polarization aasay to screen for inhibitors that compete for the binding of FadD28 to a bisubstrate Measured in Biochemical System Using Plate Reader - 2147-01_Inhibitor_Dose_CherryPick_Activity.; format: functional, Mycobacterium tuberculosis H37Rv
T2 sequence (P9WQ59 whole entry): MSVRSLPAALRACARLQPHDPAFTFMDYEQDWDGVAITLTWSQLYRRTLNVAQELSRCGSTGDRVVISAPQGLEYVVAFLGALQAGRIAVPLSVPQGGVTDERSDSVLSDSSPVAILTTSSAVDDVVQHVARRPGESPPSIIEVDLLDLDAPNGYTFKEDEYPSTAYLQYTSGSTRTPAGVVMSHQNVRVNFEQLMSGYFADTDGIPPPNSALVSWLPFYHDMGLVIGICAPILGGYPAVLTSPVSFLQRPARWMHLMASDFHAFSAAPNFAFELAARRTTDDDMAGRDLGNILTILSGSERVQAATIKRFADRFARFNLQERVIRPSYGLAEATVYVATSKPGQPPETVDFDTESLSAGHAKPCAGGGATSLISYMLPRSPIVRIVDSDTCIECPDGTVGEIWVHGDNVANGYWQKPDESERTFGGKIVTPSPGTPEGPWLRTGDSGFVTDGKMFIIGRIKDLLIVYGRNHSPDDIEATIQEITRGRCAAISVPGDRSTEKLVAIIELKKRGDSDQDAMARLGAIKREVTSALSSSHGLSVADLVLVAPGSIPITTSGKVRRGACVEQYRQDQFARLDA

[5] = P. falciparum Dd2 growth inhibitors, dose response, SYBR Green, cherry-picked samples (AID 1159567); format: functional, cell-based
[6] = growth inhibition of yeast DHODH-expressing 3D7 parasites – SYBR Green, dry powder samples, dose response (AID 1159570); format: functional, cell-based;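 further: parasite growth measured after 72 hours of compound exposure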
[7] = Dd2 malaria parasite growth inhibition potency – SYBR Green, dry powder samples, dose response (AID 1159566); format: functional, cell-based;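 further: potency for growth inhibition with lower SYBR green DNA signal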
[8] = growth inhibition of PfATP4-mutant resistant parasites – NITD609-resistant line, SYBR Green, dry powder, dose response (AID 1159571); format: functional, cell-based;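 further: parasites synchronized at ring stage by sorbitol before testing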
[9] = toxicity to human hepatoma HepG2 cells – cell-based, cherry-picked samples, cytotoxicity control, dose response (AID 1159577); format: functional
[10] = target: T3, Fructose-bisphosphate aldolase (Mycobacterium tuberculosis, UniProt P9WQA3); experiment: Fluorescence-based biochemical high throughput dose response assay for inhibitors of the fructose-bisphosphate aldolase (FBA) of M. tuberculosis.; format: functional
T3 sequence (P9WQA3 whole entry): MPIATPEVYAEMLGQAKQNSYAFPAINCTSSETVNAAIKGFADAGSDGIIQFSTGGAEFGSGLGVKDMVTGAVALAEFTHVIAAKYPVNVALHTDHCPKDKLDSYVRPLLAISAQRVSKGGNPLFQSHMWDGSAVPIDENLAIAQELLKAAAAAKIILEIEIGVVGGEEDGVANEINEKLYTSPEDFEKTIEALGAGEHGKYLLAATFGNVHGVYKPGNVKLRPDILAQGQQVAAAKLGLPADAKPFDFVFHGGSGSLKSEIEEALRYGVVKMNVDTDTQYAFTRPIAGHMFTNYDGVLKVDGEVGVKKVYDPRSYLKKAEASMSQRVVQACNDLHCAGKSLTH

[11] = IGROV1 cell killing – plate reader, dry powder samples, PAX8 inhibitor project, dose response (AID 743043); format: functional, cell-based; details: IGROV-1
Paired box protein Pax-8 = Paired box protein Pax-8 (Homo sapiens, UniProt Q06710); experiment: PAX8 transcriptional activity inhibition in RMG-I – RMG-I cells, luciferase, cherry-pick, dose response (AID 687027); format: functional, cell-based;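 further: luciferase reporter driven by Pax8 target thyroperoxidase promoter measured by SteadyGlo luminescence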
Chain of Paired box protein Pax-8 (Q06710 whole entry): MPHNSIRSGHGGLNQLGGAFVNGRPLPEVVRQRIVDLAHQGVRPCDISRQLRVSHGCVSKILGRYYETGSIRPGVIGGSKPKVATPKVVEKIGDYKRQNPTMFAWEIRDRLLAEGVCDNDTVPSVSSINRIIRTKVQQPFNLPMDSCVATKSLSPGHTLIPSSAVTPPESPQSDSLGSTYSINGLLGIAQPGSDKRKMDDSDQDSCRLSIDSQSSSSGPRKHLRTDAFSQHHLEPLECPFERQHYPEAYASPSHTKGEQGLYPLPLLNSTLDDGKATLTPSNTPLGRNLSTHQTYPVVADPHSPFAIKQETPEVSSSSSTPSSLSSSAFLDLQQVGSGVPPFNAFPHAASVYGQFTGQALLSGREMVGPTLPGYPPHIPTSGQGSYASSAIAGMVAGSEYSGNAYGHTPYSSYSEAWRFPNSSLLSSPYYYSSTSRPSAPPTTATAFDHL

[12] = HGIII-sPLA2 enzyme inhibition potency – biochemical, QFRET, IC50, dose response (AID 743457);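 further: green fluorescence rise as the enzyme cleaves BODIPY PC-A2 in liposomes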
[13] = target: T4, Corticotropin-releasing factor receptor 2/Corticotropin-releasing factor-binding protein (Homo sapiens, UniProt P24387+Q13324); experiment: activators of CRF receptor 2 with binding protein – uHTS hits, confirmation (AID 602473); format: functional; details: read-out: EC50_Mean
T4 sequence (Q13324 whole entry): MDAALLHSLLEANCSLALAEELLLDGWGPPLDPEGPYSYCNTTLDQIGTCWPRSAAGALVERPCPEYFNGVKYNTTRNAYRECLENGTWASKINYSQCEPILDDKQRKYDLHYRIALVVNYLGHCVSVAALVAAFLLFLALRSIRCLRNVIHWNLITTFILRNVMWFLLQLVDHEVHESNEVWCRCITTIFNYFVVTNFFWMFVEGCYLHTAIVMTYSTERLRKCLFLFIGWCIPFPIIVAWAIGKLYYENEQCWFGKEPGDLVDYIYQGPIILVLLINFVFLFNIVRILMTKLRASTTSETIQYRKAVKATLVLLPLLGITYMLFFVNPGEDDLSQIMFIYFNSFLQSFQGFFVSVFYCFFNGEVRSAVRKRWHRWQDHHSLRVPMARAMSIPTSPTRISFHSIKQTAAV
T4 sequence (P24387 whole entry): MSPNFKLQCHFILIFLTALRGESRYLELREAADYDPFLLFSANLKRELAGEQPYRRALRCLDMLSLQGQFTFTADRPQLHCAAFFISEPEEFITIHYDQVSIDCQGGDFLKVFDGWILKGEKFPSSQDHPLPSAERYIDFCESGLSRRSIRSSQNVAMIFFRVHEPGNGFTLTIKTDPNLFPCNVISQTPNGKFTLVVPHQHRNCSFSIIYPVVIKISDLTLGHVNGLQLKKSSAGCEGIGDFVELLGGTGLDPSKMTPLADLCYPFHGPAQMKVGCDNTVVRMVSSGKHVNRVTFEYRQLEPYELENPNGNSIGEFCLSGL

Cc1nc2ccccc2c2oc(C(=O)NCCN3CCCCC3C)cc12 (stereo not drawn)
AC50 [1]: 35.2 µM (active)

CC1(C)Oc2cc3oc(-c4cc(O)cc(O)c4)cc3cc2CC1O (stereo not drawn) [(+/-)-MORACIN P]
EC50 [2]: 11.1 µM (active)
EC50 [3]: 4.04 µM (inconclusive)
AC50 [4]: 65.8 µM (active)

C[C@H](CO)N1C[C@H](C)[C@@H](CN(C)Cc2ccc3c(c2)OCO3)Oc2ccc(NC(=O)Nc3ccc(C(F)(F)F)cc3)cc2CC1=O
AC50 [5]: 1.14 µM (active)
AC50 [6]: 0.954 µM (active)
AC50 [7]: 0.94 µM (active)
AC50 [8]: 0.852 µM (active)
AC50 [9]: > 39 µM (inactive)

Cc1nnsc1-c1nc2ccccc2[nH]1
IC50 [10]: 1.4 µM (active)

CC1CCN(CCCNC(=O)c2cc3c(=O)n(C)c4ccccc4c3n2C)CC1
AC50 [1]: 27.8 µM (active)

C[C@H](O)C#Cc1cnc2c(c1)C(=O)N([C@H](C)CO)C[C@@H](C)[C@@H](CN(C)Cc1ccc(-c3ccccc3)cc1)O2
AC50 [11]: 25.6 µM (active)
AC50 (Paired box protein Pax-8): 1.66 µM (active)

CCCCN=C(S)N(CCN(CC)CC)Cc1cc2cc3c(cc2nc1O)OCO3
IC50 [10]: 2.44 µM (active)

CC(C)CC(=O)NC(=S)NNC(=O)c1cccc([N+](=O)[O-])c1
IC50 [12]: > 122 µM (inactive)
EC50 [13]: > 53 µM (inactive)

CC(C)(CNC(=O)c1cc(-c2ccc(Cl)s2)nc2ccccc12)N1CCOCC1
IC50 [10]: 1.59 µM (active)

CCCCCC1C(=O)N2C=C(c3ccccc3)c3ccccc3N2C1=O (stereo not drawn) [CINTAZONE]
AC50 [4]: 67.3 µM (active)

— ChEMBL document CHEMBL1201862, “PubChem BioAssay data set” (2004)
